Where “and” joins values, the source holds several entries; their conditions need not be identical. Equal values may be shown once. Entries after “also recorded” stand apart in the source; their conditions may differ.
Key:
[1] = biological target: recombinant lumazine synthase of M. tuberculosis (Mycobacterium tuberculosis, UniProt P9WHE9); experiment: Kinetic assay of lumazine synthase inhibitors; type: biochemical; conditions: for inhibitory activity against lumazine synthase (in words): M. tuberculosis LS; for Kcat (rate constant for ES ⇌ E + P) / Mechanism / Kis (inhibitor dissociation constant for ES + I ⇌ ESI): LS; for Kcat (rate constant for ES ⇌ E + P): fit parameter of the inhibitor's data set; for Mechanism: most likely inhibition model (DynaFit); for Kis (inhibitor dissociation constant for ES + I ⇌ ESI): pH 7.0, 27 °C, pyrimidinedione substrate varied
Chain of recombinant lumazine synthase of M. tuberculosis (P9WHE9 whole entry): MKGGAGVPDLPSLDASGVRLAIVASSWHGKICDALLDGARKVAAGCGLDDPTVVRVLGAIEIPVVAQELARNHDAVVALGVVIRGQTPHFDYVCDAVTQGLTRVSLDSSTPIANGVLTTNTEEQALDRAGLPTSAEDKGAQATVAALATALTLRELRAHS

[2] = biological target: recombinant riboflavin synthase of M. tuberculosis (Mycobacterium tuberculosis, UniProt P9WK35); experiment: Kinetic assay of riboflavin synthase inhibitors; type: biochemical; conditions: for inhibitory activity against riboflavin synthase (in words): M. tuberculosis RS; for Kis (inhibitor dissociation constant for ES + I ⇌ ESI): pH 7.0, 27 °C; for Mechanism: most likely inhibition model (DynaFit)
Chain of recombinant riboflavin synthase of M. tuberculosis (P9WK35 whole entry): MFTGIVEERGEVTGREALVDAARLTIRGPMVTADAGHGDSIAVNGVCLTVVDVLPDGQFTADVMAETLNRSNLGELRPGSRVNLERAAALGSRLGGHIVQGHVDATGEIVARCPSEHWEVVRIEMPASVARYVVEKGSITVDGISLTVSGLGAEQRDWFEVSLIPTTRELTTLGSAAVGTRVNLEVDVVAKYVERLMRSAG

[3] = biological target: T1, M. tuberculosis lumazine synthase (Mycobacterium tuberculosis, UniProt P9WHE9); conditions: cited from earlier work
T1 sequence (P9WHE9 whole entry): as the sequence (P9WHE9 whole entry) above

[4] = biological target: T1, M. tuberculosis lumazine synthase; experiment: biochemical; type: binding; conditions: for binding enthalpy ΔH: 100 mM potassium phosphate buffer, pH 7.0, 30 °C, apparent; for entropy ΔS of binding: calculated from ΔG = ΔH − TΔS
[5] = biological target: icosahedral lumazine synthase from Bacillus anthracis (Bacillus anthracis, UniProt Q81MB5); type: binding
Chain of icosahedral lumazine synthase from Bacillus anthracis (Q81MB5 whole entry, looked up): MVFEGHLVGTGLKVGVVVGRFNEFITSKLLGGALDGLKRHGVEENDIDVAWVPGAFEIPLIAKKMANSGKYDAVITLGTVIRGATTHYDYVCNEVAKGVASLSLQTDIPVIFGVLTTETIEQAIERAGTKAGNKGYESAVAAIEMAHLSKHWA

[6] = biological target: pentameric lumazine synthase from Schizosaccharomyces pombe (Schizosaccharomyces pombe, UniProt Q9UUB1); type: binding; conditions: same experimental limits as for the M. tuberculosis enzyme
Chain of pentameric lumazine synthase from Schizosaccharomyces pombe (Q9UUB1 whole entry): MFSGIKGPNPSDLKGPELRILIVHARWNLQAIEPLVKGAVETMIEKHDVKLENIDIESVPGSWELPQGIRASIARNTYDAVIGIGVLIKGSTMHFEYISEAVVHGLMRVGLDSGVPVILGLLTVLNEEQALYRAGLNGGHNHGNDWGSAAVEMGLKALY

[7] = RS, fit parameter of the inhibitor's data set

Molecule	inhibitory activity against lumazine synthase (in words) [1]	inhibitory activity against riboflavin synthase (in words) [2]	Kcat (rate constant for ES ⇌ E + P) [1] [m^−1]	Mechanism [1]	Kis (inhibitor dissociation constant for ES + I ⇌ ESI) [1]	Ks (substrate dissociation constant for E + S ⇌ ES) [2, 7] [µM]	Kis (inhibitor dissociation constant for ES + I ⇌ ESI) ([2]; RS) [µM]	also measured
1,1-Difluoro-4-(2-oxo-1,2-dihydrobenzo[cd]indole-6-sulfonamido)butylphosphonic Acid [Compound 71]	inactive	inactive						
1,1-Difluoro-4-(2-oxo-1,2-dihydrobenzo[cd]indole-6-sulfonamido)hexylphosphonic Acid [Compound 73]	inactive	inactive						
1,1-Difluoro-4-(2-oxo-1,2-dihydrobenzo[cd]indole-6-sulfonamido)pentylphosphonic Acid [Compound 72]	poor inhibitory activity	inactive	0.57 ± 0.01	Mixed	518 µM and 518 ± 94 µM	4.1 ± 0.3	> 1000	
4-(2-Oxo-1,2-dihydrobenzo[cd]indole-6-sulfonamido)pentylphosphonic Acid [Compound 55]	absolutely no inhibitory activity							
5-(2-Oxo-1,2-dihydrobenzo[cd]indole-6-sulfonamido)hexyl Dihydrogen Phosphate [Compound 40]		weak, uncompetitive inhibitors	0.45 ± 0.01	Uncompetitive	723 ± 91 µM	9.8 ± 0.6	898 ± 187	Kcat (rate constant for ES ⇌ E + P) [2, 7]: 0.56 ± 0.01 m^−1; Mechanism ([2]; RS): Uncompetitive
O=C(O)CNS(=O)(=O)c1ccc2c3c(cccc13)C(=O)N2 [Compound 9, 2-(2-oxo-1,2-dihydrobenzo[cd]indole-6-sulfonamido)acetic acid]	demonstrated inhibition				58 µM			
O=c1[nH]c(Cl)c(CCCCOP(=O)(O)O)c(=O)[nH]1 [Compound 11, 4-(6-chloro-2,4-dioxo-1,2,3,4-tetrahydropyrimidin-5-yl)butyl dihydrogen phosphate]								Ki ([3]; M. tuberculosis lumazine synthase): 0.88 µM; inhibition constant (in words) ([3]; lumazine synthase): nanomolar range
O=C1Nc2ccc(S(=O)(=O)NCCOP(=O)(O)O)c3cccc1c23 [Compound 26, 2-(2-Oxo-1,2-dihydrobenzo[cd]indole-6-sulfonamido)ethyl Dihydrogen Phosphate]			0.41 ± 0.01	Partial	125 ± 57 µM	5.7 ± 0.04	> 1000	
O=C1Nc2ccc(S(=O)(=O)NCCCOP(=O)(O)O)c3cccc1c23 [Compound 27, 3-(2-Oxo-1,2-dihydrobenzo[cd]indole-6-sulfonamido)propyl Dihydrogen Phosphate]			0.45 ± 0.01	Mixed	434 ± 115 µM	5.6 ± 0.04	> 1000	Kd [4]: 112 µM; binding enthalpy ΔH ([4]; ITC): -5.2 ± 0.7 kcal/mol; entropy ΔS of binding ([4]; ITC, 30 °C): 0.98 cal·mol^−1·deg^−1
O=C1Nc2ccc(S(=O)(=O)NCCO)c3cccc1c23 [Compound 31, N-(2-Hydroxyethyl)-2-oxo-1,2-dihydrobenzo[cd]indole-6-sulfonamide]	totally inactive							
CCC(O)CNS(=O)(=O)c1ccc2c3c(cccc13)C(=O)N2 (stereo not drawn) [Compound 32, N-(2-Hydroxybutyl)-2-oxo-1,2-dihydrobenzo[cd]indole-6-sulfonamide]	totally inactive							
O=C1Nc2ccc(S(=O)(=O)NCCCCCO)c3cccc1c23 [Compound 33, N-(5-Hydroxypentyl)-2-oxo-1,2-dihydrobenzo[cd]indole-6-sulfonamide]	totally inactive							
O=C1Nc2ccc(S(=O)(=O)NCCCCOP(=O)(O)O)c3cccc1c23 [Compound 38, 4-(2-Oxo-1,2-dihydrobenzo[cd]indole-6-sulfonamido)butyl Dihydrogen Phosphate]			0.44 ± 0.01	Mixed	572 ± 210 µM	6.5 ± 0.3	> 1000	binding detected by titration calorimetry (in words) [5]: do not indicate a binding reaction; also recorded: did not detect binding; binding detected by titration calorimetry (in words) [6]: do not indicate a binding reaction; also recorded: did not detect binding; Kd [4]: 130 µM; binding enthalpy ΔH ([4]; ITC): -7.6 ± 1.3 kcal/mol; entropy ΔS of binding ([4]; ITC, 30 °C): −7.2 cal·mol^−1·deg^−1; stoichiometry (n) of the binding reaction ([4]; ITC, 30 °C, inhibitor molecules per active site): 1
O=C1Nc2ccc(S(=O)(=O)NCCCCCOP(=O)(O)O)c3cccc1c23 [Compound 39, 5-(2-oxo-1,2-dihydrobenzo[cd]indole-6-sulfonamido)pentyl Dihydrogen Phosphate]		weak, uncompetitive inhibitors	0.45 ± 0.01	Uncompetitive	563 ± 56 µM	9.8 ± 0.6	971 ± 179	Mechanism ([2]; RS): Uncompetitive
O=C1Nc2ccc(S(=O)(=O)NCCCCP(=O)(O)O)c3cccc1c23 [Compound 54, 4-(2-Oxo-1,2-dihydrobenzo[cd]indole-6-sulfonamido)butylphosphonic Acid]	absolutely no inhibitory activity							
CCOC(=O)C(=O)Nc1c(Cl)[nH]c(=O)[nH]c1=O [Compound 77, Ethyl 2-(6-Chloro-2,4,dioxo-1,2,3,4-tetrahydropyrimidin-5-ylamino)-2-oxoethanoate]		weak, uncompetitive inhibitors	0.61 ± 0.02	Mixed	> 1000 µM	7.8 ± 0.3	897 ± 104	Mechanism ([2]; RS): Uncompetitive
